Measurements published in publication PMC9454942, “Novel AR/AR-V7 and Mnk1/2 Degrader, VNPP433-3β: Molecular Mechanisms of Action and Efficacy in AR-Overexpressing Castration Resistant Prostate Cancer In Vitro and In Vivo Models” (Cells, 2022).

Molecular target: T1, androgen receptor (AR) ligand binding domain (Homo sapiens, UniProt P10275)
T1 construct: recombinant human AR LBD
T1 sequence (P10275 669-920 limits assumed): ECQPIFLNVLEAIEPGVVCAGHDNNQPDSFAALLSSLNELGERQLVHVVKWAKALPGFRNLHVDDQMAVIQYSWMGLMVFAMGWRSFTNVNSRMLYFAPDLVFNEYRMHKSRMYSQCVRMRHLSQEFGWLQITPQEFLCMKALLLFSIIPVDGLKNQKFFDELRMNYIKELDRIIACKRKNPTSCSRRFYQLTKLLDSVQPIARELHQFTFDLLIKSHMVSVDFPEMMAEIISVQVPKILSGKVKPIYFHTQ
Experiment: fluorescence spectroscopy titration with purified AR LBD; supported by CETSA in LNCaP cells

Compound: C[C@]12CC[C@H](n3ccnc3)CC1=CC[C@@H]1[C@@H]2CC[C@]2(C)C(n3cnc4ccccc43)=CC[C@@H]12 [VNPP433-3β]
- Kd: 0.36 ± 0.03 µM
